For 30 compounds, inhibition and IC50 results are on record in ChEMBL document CHEMBL2440085, “Identification of novel PARP-1 inhibitors by structure-based virtual screening” (Bioorg Med Chem Lett, 2013).

As usually defined, the inhibition is the percentage by which the read-out fell short of the control. As usually defined, the IC50 is the point on the concentration scale where inhibition reaches its midpoint. High values mean lower potency, low ones higher potency.

For assay [1], the target named is T1, Poly [ADP-ribose] polymerase 1 (Homo sapiens, UniProt P09874). The experiment in a line: Inhibition of PARP-1 (unknown origin) at 1 uM after 60 mins by colorimetric assay relative to control.
The target of assay [2] is T1, Poly [ADP-ribose] polymerase 1. Nature of the assay: Inhibition of PARP-1 (unknown origin) after 60 mins by colorimetric assay.
For assay [3] the target is unchanged. The experiment in a line: Inhibition of PARP-1 (unknown origin) at 10 uM after 60 mins by colorimetric assay relative to control.

Activity calls are given as the source filed them. The rule behind the calls is not given here. Bounds are passed on as bounds.

T1 sequence (P09874 whole entry): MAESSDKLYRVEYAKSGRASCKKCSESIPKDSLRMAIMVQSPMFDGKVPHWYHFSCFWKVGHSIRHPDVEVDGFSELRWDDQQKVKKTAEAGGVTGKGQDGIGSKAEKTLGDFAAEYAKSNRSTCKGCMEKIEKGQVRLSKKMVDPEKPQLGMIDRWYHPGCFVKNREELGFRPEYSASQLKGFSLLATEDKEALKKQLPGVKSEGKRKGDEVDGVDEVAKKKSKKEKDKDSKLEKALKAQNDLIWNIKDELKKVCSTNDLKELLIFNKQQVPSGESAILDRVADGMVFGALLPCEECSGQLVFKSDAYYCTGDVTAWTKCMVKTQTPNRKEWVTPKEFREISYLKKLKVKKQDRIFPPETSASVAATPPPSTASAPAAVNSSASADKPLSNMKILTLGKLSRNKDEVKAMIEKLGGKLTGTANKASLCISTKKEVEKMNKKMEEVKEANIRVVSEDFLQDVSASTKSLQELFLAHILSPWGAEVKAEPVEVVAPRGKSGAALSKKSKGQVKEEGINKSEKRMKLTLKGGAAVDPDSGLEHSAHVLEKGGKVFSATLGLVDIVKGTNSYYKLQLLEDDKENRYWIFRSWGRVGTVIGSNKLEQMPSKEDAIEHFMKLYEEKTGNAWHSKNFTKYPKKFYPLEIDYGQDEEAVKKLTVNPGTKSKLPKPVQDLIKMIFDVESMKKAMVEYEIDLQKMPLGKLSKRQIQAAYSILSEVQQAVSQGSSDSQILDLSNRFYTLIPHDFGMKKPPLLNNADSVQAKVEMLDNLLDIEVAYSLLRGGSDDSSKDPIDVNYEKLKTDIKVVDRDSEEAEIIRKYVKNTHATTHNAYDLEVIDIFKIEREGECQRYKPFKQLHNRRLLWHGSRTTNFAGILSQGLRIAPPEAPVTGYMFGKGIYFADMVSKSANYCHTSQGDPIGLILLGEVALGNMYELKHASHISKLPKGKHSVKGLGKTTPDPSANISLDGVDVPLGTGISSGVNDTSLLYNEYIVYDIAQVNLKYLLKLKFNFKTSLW

As to `Cc1sc2nc(SCC(=O)N3CCN(CCO)CC3)[nH]c(=O)c2c1C`, the inhibition in assay [1] was found to be 40%. Moreover, the IC50 in assay [2] stood at 0.72 µM.

`O=C1Nc2ccc(S(=O)(=O)NCc3ccccn3)c3cccc1c23`: the inhibition entry in assay [1] is “inactive”.

On to `Cc1ccc(C(=O)CSc2nc3c(c(=O)[nH]2)CCC3)cc1`, for which, in assay [1], the inhibition result is “inactive”.

Regarding `O=c1[nH]cnc2ccsc12`, the IC50 in assay [2] came out at 14 µM.

On to `O=C1N[C@@H]2N(Cc3ccccc3C23CCOCC3)c2ccccc21`, for which, in assay [1], the inhibition is 40%. For the same compound, the half-maximal inhibitory concentration (IC50) in assay [2] stood at 1.96 µM.

`O=C1NC(=O)c2cc(NS(=O)(=O)c3cccc4cccnc34)ccc21`: the inhibition result in assay [1] was “inactive”.

On to `O=C(CS(=O)(=O)CC(=O)c1ccc2c(c1)NC(=O)CO2)Nc1ccccc1`, for which, in assay [1], the inhibition entry was “inactive”.

As for `Cc1ccc(C(=O)C2=C3NC(=O)c4ccccc4N3Cc3ccccc32)cc1`, in assay [1], the inhibition entry is “inactive”.

On to `CCCn1c2c(c(=S)[nH]c1=O)CCC2`, for which, in assay [1], the inhibition entry is “inactive”.

With `CC(C)(C)c1nn2c(SCC(=O)c3ccc(Cl)c(Cl)c3)nnc2[nH]c1=O`, the inhibition entry in assay [1] was “inactive”.

Turning to `Cc1ccc2cc(CCN)c(=O)[nH]c2c1C`, the inhibition result in assay [1] is “inactive”.

Consider `O=C(O)CN1C(=O)c2ccc3c4c(ccc(c24)C1=O)C(=O)N3`, for which the inhibition entry in assay [1] was “inactive”.

Turning to `CC1Oc2ccc(NC(=O)COc3ccc(F)cc3)cc2NC1=O` (stereo not given), the inhibition entry in assay [1] is “inactive”.

Take `O=C(c1ccc(F)cc1)c1c2nc[nH]c(=O)c2c2ccccn12`: the inhibition entry in assay [1] was “inactive”.

As to `N#Cc1c(-c2ccccc2)cn2c1[nH]c(=O)c1ccccc12`, the inhibition in assay [1] worked out at 40%. In assay [2], this compound displayed an IC50 of 9.57 µM.

As to `CCN(CC)c1ccc(/C=N\Nc2nnc(C)c(=O)[nH]2)cc1`, the inhibition result in assay [1] was “inactive”.

As for `O=c1[nH]c(NCc2ccncc2)nc2c1CCC2`, in assay [1], the inhibition entry was “inactive”.

As for `Oc1ncnc2ccsc12`, the inhibition in assay [3] stood at 46%.

Take `O=C(c1ccccc1)c1c2nc[nH]c(=O)c2c2ccccn12`: the inhibition result in assay [1] was “inactive”.

For the compound `O=c1[nH]n(-c2ccc([N+](=O)[O-])cc2)c(=O)c2ccccc12`, in assay [1], the inhibition entry is “inactive”.

As for `O=C(CSc1nc2sc3c(c2c(=O)[nH]1)CCC3)N(CCO)CCO`, in assay [1], the inhibition turned out to be 40%. For the same compound, the midpoint of inhibition in assay [2], the IC50, lay at 2.14 µM.

Consider `O=C1Nc2ccc(S(=O)(=O)NCc3cccnc3)c3cccc1c23`, for which the inhibition entry in assay [1] was “inactive”.

As to `O=c1[nH]cnc2sccc12`, the inhibition in assay [3] was below 20%.

Consider `CC1Oc2ccc(NC(=O)CNC(=O)c3ccccc3)cc2NC1=O` (stereo not given), for which, in assay [1], the inhibition entry was “inactive”.

For `O=C1N[C@H]2Cc3ccccc3CN2c2ccccc21`, the inhibition in assay [1] was found to be 40%. In assay [2], this compound gave an IC50 of 1.92 µM.

As to `Cc1cc(OCC(=O)Nc2ccc3c(c2)NC(=O)C(C)O3)ccc1Cl` (stereo not given), the inhibition result in assay [1] was “inactive”.

Consider `Cc1cccc(N2CCN(c3nnc(C)c(=O)[nH]3)CC2)c1C`, for which the inhibition entry in assay [1] was “inactive”.

Regarding `Cc1nn2nnnc2[nH]c1=O`, the inhibition entry in assay [1] is “inactive”.

In the case of `Oc1nc2ccccc2n2nnnc12`, the inhibition result in assay [1] is “inactive”.

On to `O=C1Nc2ccc(S(=O)(=O)Nc3ccc(Cl)cn3)c3cccc1c23`, for which the inhibition entry in assay [1] was “inactive”.
